Structures can show the parent of a compound that is named as a salt. Where two headings read alike, the source gives them in different places.
Tests used:
[1] = molecular target: T1, human recombinant histamine H3R (Homo sapiens, UniProt Q9Y5N1); assay: hH3R radioligand binding ([3H]Nα-methylhistamine depletion assay); conditions: read-out: hH3R Ki [nM] x̄ [CI 95%]; mean [CI 95%]; HEK-293 cells
T1 construct: expressed in transfected cells

[2] = molecular target: T2, human histamine H4 receptor (hH4R) (Homo sapiens, UniProt Q9H3N8); assay: hH4R radioligand binding ([3H]UR-PI294); conditions: read-out: hH4R (Ki [nM] x̅ [CI 95%]); HEK293T cells; n = 3, triplicate
T2 construct: SP (signal peptide) (N); FLAG (N); expressed in transfected cells
Description: To check the selectivity profile of our lead structures, radioligand binding studies at other histamine receptor subtypes were carried out. […] Obtained results clearly indicate the high selectivity of the tested derivatives toward human H3R (Table 3).
Compounds (as oxalate salts) were tested in H3R in vitro binding studies using the methods described previously.[21]−[23] […] Radioligand binding experiments at the H1R, H2R, and H4R were performed as previously described in Rosier et al.[65] and Bartole et al.[66] […] Data represent mean values ± CI from three independent experiments, each performed in triplicate. The normalized competition binding curves were then fitted with a four-parameter logistic fit yielding IC50 values using the Prism 8.4.3 software (GraphPad, San Diego, CA). The Ki values were estimated from the Cheng–Prusoff equation.[69]

[3] = spontaneous locomotor activity; assay type: in vivo, mice; conditions: mouse, in vivo, ip; estimated; read-out: ED50, decrease of spontaneous locomotor activity
Description: (§1) The high sedative activity of analgesics is considered an undesirable property, which may lead to an incorrect or ambiguous interpretation of the in vivo results. Moreover, it may limit the potential clinical application of new drug candidates.
(§2) This test was carried out according to the procedure described elsewhere.[84] The animals were injected (i.p.) with 12 at doses of 5, 15, and 30 mg/kg and placed in the activity cages individually (30 min before the experiment). The number of light-beam crossings was counted in each group during the next 30 min in 10 min intervals.

mice [4] = assay: spontaneous locomotor activity; assay type: in vivo
Description: as §1, §2

mice [5] = assay: motor coordination in the rotarod test; assay type: in vivo; conditions: 15 mg/kg i.p.; 6, 18 and 24 rpm
Text: The neurotoxicity of the new compounds can result in impaired motor functions of the experimental animals, which may subsequently cause false interpretation of the results of in vivo tests. Understandably, neurotoxicity is also the frequent reason for eliminating the tested compound from further studies. To minimize that risk, we investigated the influence of our lead structures on motor coordination in the rotarod test, which is the classical test used for assessing motor coordination and balance in rodents. It provides a quick and simple estimation of neuromuscular coordination. […] The time spent on the rotarod apparatus was 60 s for each control mouse.
The test was carried out on the semiautomatic rotarod apparatus (Rotarod apparatus Panlab/Harvard Apparatus, LE 8200, Spain) according to the method previously described in the literature.[85] The mice were trained for 3 days on the rod rotating at a constant speed of 18 rotations per minute (rpm). During each training session, the animals were placed on the rod for 3 min with an unlimited number of trials. On the test day (24 h after the final training trial), 30 min before the rotarod test, the mice were pretreated (i.p.) with the test compound (15 mg/kg). Then, the animals were tested on the rotarod revolving at 6, 18, and then 24 rpm. Motor impairments, defined as the inability to remain on the rotating rod for 1 min, were measured at each speed.

mice [6] = assay: formalin test; assay type: in vivo; conditions: Mus musculus, ip
Text: The formalin test is one of the most useful screening models for testing potentially clinically relevant antinociceptive molecules because of its ease of administration, standardization, and validation with reference drugs.[50] The subcutaneous injection of formalin results in a focal injury that stimulates and then damages sensory endings. Two distinct phases of nociceptive response are associated with the immediate activation of nociceptors and sensitization of spinal reflex circuits during phase I and II responses, respectively.[51]
The procedure used was essentially the same as that described previously.[86],[87] Briefly, 20 μL of 1.5% formalin solution was injected intraplantarly (i.pl.) into the mice right hind paw using a 26-gauge needle. […] The total time (in seconds) spent on licking the injected paw during periods of 0–5 min (early phase, neurogenic) and 15–30 min (late phase, inflammatory) was measured and was considered as an indicator of nociceptive behavior. Before formalin injection, different groups of mice were treated i.p. with the vehicle (10 mL/kg, negative control) and the varying doses of 12 (5, 10, 15, and 30 mg/kg).

CCI-exposed mice = assay: CCI of the sciatic nerve, cold plate test; assay type: in vivo, male albino Swiss CD-1 mice
Description: Behavioral assessment of 12 was performed 14 days after the sciatic nerve injury. Mice were randomly assigned to four treatment groups: vehicle-treated (i.p.) and 12-treated (5, 10, and 15 mg/kg, i.p.). Baseline measurements (basal) for all tests were performed before compound injections, and the results are presented as percentages of the maximal possible effect (% MPE). We observed a significant effect of the tested compound in the von Frey test at all tested time points (30 min: F(3, 26) = 12.38, p < 0,0001; 90 min: F(3, 26) = 12.65, p < 0.0001; 180 min: F(3, 26) = 6.464, p = 0.0020). […] We also observed a significant effect of treatment on the contralateral paw 90 min after injection (F(3, 26) = 5.741, p = 0.0037).
The model of chronic constriction injury (CCI) to the sciatic nerve was established according to Bennett and Xie.[94] The surgical method was performed under isoflurate anesthesia (2% isoflurane in 100% oxygen with a flow of 1.5 L/min).[95] Below the right hipbone, a small incision was performed, and three ligatures (4/0 silk) around the sciatic nerve were made (with 1 mm spacing) until a brief twitch in the respective hind limb was observed. All mice that underwent the CCI procedure developed hypersensitivity to mechanical and thermal stimuli. Behavioral tests were performed at day 14 after injury. Compound 12 was dissolved in 10% DMSO/10% (2-hydroxypropyl)-β-cyclodextrin/water and administered i.p. at doses 5, 10, and 15 mg/kg (injection volume 10 mL/kg of body weight). The control group received the vehicle (10% DMSO/10% (2-hydroxypropyl)-β-cyclodextrin/water).
Behavioral experiments were performed between 8:00 a.m. and 2:00 p.m. Across the experiments, we compared vehicle-treated mice with 12-treated animals. […]
Sensitivity to noxious thermal stimuli was assessed with the cold plate test (Cold/Hot Plate Analgesia Meter, Columbus Instruments) as previously described.[95] […] The mice were placed on the cold plate, and the time until lifting of the injured paw was recorded.

T2 sequence (Q9H3N8 whole entry): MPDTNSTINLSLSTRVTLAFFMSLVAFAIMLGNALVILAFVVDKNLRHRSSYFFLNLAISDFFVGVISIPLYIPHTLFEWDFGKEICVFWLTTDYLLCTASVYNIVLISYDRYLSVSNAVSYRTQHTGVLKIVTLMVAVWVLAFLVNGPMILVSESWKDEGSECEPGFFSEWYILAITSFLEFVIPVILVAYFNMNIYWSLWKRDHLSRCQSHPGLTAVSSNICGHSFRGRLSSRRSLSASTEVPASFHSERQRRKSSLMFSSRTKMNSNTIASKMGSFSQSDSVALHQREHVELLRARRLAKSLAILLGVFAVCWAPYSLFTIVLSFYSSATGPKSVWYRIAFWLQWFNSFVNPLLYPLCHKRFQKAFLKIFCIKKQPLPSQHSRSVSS
T1 sequence (Q9Y5N1 whole entry): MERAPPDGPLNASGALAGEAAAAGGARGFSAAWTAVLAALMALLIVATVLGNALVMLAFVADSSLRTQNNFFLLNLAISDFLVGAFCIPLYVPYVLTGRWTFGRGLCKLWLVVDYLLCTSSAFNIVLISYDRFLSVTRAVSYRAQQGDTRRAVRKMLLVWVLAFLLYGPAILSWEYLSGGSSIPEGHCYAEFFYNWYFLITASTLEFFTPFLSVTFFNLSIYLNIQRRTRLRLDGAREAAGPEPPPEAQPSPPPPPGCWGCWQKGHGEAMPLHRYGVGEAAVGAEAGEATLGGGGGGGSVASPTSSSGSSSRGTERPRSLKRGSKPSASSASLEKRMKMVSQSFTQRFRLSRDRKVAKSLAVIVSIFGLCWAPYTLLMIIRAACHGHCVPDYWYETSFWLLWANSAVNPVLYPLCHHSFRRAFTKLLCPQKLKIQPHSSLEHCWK

SMILES: N#Cc1ccc(-c2ccc(OCCCN3CCC(c4ccncc4)CC3)cc2)cc1 [Compound 12, 4′-(3-(4-(Pyridin-4-yl)piperidin-1-yl)propoxy)-[1,1′-biphenyl]-4-carbonitrile Oxalate]
- Ki [1]: 7.7 nM
- Ki [2]: > 10000 nM
- ED50 at 30 min [3]: 22 mg/kg
- influence on spontaneous locomotor activity (sedative effect) (mice [4]; 15 mg/kg i.p.): decreased spontaneous locomotor activity, but the effect was not statistically significant
- influence on spontaneous locomotor activity (sedative effect) (mice [4]; 30 mg/kg i.p.): significantly decreased locomotor activity
- influence on motor coordination, time on rotarod (mice [5]): slightly affected motor coordination, but the effect was not statistically significant
- ED50 (mice [6]; 0–5 min after formalin, read-out: ED50, formalin test phase I (acute phase)): 6.17 mg/kg
- ED50 (mice [6]; 15–30 min after formalin, read-out: ED50, formalin test phase II (late phase)): 12.3 mg/kg
- analgesic effect, cold plate test (CCI-exposed mice; 35 min after i.p. injection, 5, 10, 15 mg/kg): analgesic effects of 12 single injection were observed at 35 min for all tested doses
- analgesic effect, cold plate test (CCI-exposed mice; 95 min after i.p. injection, 5, 10, 15 mg/kg): antihyperalgesic effect was also observed 95 min after injection
- analgesic effect, cold plate test (CCI-exposed mice; 185 min after i.p. injection): significant only for doses 5 (p = 0.0482) and 10 mg/kg (p < 0.0001)

Source: article PMC10388327, “Dual Piperidine-Based Histamine H3 and Sigma-1 Receptor Ligands in the Treatment of Nociceptive and Neuropathic Pain” (Journal of Medicinal Chemistry, 2023)
